# Measurements taken from ChEMBL document CHEMBL1201862, “PubChem BioAssay data set” (2004).
# Active and inactive are the calls of the source.
# How the values were obtained:
# [1] = inhibitors of intracellular T. cruzi replication, confirmation, NIH3T3 host cells, beta-gal luminescence (AID 2044); assay type: functional, cell-based;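 further: intracellular parasites grown in NIH/3T3 mouse fibroblasts as host cells; luminescent beta-galactosidase reporter signal from transgenic T. cruzi replicating inside host cells; inhibitors lower the luminescence signal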
# [2] = Luminescence Cell-Based Dose Retest to Confirm Inhibitors of Cancer Stem Cells. [Related pubchem assays (depositor defined):AID2717, AID2721]; assay type: functional; conditions: Homo sapiens
# Streptococcus = assay: Group A Streptococcus viability loss, dose response, counter-screen for streptokinase expression inhibitor project, luminescence, BacTiterGlo (AID 1915); assay type: functional, organism-based;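 further: potency for reduction of bacterial viability or growth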
# A-375 [3] = assay: A375 melanoma cell viability reduction, dose response, counter-screen for MITF modulator project, cherry-pick samples, set 2 (AID 540335); assay type: functional, cell-based; conditions: Homo sapiens
# [4] = tested on: Streptococcus sp. 'group A'; assay: growth inhibition of control SK(-) GAS strain, dose response, counter-screen for streptokinase expression inhibitor project, luminescence, kanamycin, BacTiterGlo, confirmation (AID 1900); assay type: functional, organism-based
# [5] = target: T1, Microphthalmia-associated transcription factor (Homo sapiens, UniProt O75030); assay: TRPM1 promoter luciferase signal decrease, dose response, MITF inhibitor project, cell-based, SK-MEL-5, cherry-picked, set 3 (AID 493073); assay type: functional
# T1 sequence (O75030 whole entry): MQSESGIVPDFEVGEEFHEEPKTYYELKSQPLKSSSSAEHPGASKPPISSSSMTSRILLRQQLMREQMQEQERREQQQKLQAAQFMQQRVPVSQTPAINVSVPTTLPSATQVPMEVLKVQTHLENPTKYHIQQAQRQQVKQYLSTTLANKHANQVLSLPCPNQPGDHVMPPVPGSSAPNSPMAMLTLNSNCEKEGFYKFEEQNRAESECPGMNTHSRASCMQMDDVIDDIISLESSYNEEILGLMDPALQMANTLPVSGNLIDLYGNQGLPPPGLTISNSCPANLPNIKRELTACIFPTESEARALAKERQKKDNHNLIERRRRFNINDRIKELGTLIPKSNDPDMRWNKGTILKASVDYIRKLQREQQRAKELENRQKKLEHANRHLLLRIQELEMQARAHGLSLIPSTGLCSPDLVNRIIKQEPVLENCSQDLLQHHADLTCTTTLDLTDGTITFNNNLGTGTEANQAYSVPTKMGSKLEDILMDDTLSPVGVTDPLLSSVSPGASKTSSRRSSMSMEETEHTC
# A-375 [6] = assay: MITF: Counter assay: A375 proliferation Measured in Cell-Based System Using Plate Reader - 2084-03_Inhibitor_Dose_DryPowder_Activity. [Related pubchem assays (depositor defined):AID488944]; assay type: functional; conditions: Homo sapiens
# Streptokinase A = target: T2, Streptokinase A (Streptococcus pyogenes serotype M1, UniProt P10520); assay: S. pyogenes streptokinase expression inhibitors, potency, dose response, plasminogen activation absorbance, OD405 (AID 1914); assay type: functional, Streptococcus pyogenes M1 GAS;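 further: secreted streptokinase activity via plasminogen activation per viability signal from cell pellet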
# T2 sequence (P10520 whole entry): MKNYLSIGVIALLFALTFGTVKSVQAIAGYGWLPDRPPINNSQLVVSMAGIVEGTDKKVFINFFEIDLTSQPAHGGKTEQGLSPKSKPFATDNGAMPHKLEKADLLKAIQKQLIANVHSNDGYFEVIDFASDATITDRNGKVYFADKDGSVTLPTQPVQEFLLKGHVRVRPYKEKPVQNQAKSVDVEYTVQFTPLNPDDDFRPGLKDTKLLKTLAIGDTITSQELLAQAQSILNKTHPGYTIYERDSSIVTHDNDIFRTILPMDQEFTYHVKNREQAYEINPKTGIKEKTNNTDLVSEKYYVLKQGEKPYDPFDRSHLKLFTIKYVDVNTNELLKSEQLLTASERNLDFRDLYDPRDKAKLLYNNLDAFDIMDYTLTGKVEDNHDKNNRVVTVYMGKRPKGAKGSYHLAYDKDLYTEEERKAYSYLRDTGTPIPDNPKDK
# [7] = cytotoxicity toward NIH3T3 fibroblasts, dose response, counter-screen, cell-based, ATP luminescence, mouse fibroblasts (AID 2010); assay type: functional;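 further: cells exposed to compound for about 90 hours before reading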
# [8] = target: T3, Small ubiquitin-related modifier 1 (Homo sapiens, UniProt P63165); assay: inhibitors of SUMO1 partner interactions, dose response, biochemical, FRET (AID 624383); assay type: functional; conditions: read-out: IC50_Mean
# T3 sequence (P63165 whole entry): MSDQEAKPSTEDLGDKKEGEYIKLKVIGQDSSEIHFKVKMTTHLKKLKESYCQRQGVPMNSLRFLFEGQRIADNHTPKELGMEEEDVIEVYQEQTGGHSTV
# [9] = target: Peroxisome proliferator-activated receptor gamma/Nuclear receptor corepressor 2 (Homo sapiens, UniProt P37231+Q9Y618); assay: Counterscreen for NR2E3 inverse agonists: TR-FRET-based biochemical high throughput dose response assay to identify inverse agonists of the interaction between peroxisome proliferator-activated receptor gamma (PPARg) and nuclear receptor co-repressor 2 (NCOR2).; assay type: functional
# Chain of Peroxisome proliferator-activated receptor gamma/Nuclear receptor corepressor 2 (P37231 whole entry): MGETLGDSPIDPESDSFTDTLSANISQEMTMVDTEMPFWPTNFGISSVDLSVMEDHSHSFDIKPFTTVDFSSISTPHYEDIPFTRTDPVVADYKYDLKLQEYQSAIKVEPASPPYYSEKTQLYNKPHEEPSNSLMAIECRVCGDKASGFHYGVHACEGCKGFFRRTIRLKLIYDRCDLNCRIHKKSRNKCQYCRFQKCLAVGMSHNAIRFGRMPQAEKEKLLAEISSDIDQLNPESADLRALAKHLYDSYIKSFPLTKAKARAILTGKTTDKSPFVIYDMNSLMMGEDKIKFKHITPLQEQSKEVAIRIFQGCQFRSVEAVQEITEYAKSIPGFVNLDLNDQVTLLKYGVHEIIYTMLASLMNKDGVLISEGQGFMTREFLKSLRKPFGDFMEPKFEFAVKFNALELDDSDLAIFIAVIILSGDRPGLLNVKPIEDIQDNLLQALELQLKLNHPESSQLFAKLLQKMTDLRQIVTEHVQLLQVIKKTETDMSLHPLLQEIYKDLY
# Chain of Peroxisome proliferator-activated receptor gamma/Nuclear receptor corepressor 2 (Q9Y618 whole entry): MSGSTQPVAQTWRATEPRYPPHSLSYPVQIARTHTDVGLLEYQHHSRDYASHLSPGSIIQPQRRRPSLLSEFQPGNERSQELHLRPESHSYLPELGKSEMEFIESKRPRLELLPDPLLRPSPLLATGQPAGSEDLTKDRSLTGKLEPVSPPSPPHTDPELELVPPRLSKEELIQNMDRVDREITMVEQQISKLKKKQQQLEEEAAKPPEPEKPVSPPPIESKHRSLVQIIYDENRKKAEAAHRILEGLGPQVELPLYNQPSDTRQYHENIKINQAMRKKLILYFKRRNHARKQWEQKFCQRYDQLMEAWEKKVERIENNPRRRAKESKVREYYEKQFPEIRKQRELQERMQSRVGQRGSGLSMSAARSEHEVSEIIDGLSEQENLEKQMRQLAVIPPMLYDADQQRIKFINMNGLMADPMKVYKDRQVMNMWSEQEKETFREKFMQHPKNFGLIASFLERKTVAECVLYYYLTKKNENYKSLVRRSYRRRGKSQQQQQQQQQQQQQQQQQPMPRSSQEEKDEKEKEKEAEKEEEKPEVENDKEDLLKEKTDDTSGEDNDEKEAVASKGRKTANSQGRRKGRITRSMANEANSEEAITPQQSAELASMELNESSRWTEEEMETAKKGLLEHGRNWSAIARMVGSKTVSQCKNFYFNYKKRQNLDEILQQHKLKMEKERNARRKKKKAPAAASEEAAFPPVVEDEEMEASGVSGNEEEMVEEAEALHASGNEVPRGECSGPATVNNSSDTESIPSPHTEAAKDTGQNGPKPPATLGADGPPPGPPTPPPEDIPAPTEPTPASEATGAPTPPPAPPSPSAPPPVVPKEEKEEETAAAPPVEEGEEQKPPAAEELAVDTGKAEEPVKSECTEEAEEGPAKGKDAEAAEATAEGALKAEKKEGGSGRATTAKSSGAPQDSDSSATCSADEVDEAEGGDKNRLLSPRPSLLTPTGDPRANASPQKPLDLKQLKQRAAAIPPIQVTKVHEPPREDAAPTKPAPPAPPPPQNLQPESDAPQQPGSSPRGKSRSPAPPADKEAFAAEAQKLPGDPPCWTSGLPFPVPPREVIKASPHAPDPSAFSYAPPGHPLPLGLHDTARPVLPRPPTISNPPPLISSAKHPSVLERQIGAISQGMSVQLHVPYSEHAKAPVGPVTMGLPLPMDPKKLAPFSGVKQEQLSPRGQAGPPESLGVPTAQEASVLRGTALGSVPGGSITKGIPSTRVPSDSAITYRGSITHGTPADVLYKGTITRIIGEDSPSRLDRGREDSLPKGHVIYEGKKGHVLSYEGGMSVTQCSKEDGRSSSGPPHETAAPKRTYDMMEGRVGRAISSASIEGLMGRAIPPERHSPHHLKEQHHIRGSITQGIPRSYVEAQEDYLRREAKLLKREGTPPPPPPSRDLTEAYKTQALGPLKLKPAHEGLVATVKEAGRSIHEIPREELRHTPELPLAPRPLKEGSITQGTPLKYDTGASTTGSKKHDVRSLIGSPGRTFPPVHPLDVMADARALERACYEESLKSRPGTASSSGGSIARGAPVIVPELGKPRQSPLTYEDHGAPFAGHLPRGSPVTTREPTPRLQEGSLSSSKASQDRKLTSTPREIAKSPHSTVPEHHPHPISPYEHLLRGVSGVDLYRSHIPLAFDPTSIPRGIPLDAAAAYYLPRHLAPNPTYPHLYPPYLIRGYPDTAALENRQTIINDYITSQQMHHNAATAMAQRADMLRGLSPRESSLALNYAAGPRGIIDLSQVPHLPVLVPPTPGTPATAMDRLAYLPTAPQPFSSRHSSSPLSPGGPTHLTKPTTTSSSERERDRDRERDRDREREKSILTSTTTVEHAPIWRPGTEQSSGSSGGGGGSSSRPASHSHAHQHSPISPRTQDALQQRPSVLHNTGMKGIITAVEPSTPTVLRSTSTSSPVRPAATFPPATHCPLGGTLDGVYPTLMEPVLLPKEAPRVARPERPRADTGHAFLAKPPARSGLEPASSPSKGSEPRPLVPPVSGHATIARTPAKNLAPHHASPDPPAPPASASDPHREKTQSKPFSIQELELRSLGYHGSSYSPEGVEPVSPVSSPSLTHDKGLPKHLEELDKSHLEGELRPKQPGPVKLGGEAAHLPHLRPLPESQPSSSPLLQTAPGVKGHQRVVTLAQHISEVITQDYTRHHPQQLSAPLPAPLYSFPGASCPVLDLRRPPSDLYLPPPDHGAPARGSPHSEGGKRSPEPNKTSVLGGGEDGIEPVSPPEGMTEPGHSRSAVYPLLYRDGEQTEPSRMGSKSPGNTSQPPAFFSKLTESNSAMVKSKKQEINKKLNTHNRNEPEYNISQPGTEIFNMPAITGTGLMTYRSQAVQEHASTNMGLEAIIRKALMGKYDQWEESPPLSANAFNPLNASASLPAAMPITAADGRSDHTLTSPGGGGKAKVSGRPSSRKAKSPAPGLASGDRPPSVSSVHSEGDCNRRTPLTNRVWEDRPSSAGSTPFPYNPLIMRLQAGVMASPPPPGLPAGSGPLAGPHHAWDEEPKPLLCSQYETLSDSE
# [10] = target: Beta-adrenergic receptor kinase 1 (Homo sapiens, UniProt P25098); assay: GRK2 inhibitors displacing RNA aptamer, dose response, biochemical, flow cytometry beads, FAM-aptamer, powder set 1 (AID 588720)
# Chain of Beta-adrenergic receptor kinase 1 (P25098 whole entry): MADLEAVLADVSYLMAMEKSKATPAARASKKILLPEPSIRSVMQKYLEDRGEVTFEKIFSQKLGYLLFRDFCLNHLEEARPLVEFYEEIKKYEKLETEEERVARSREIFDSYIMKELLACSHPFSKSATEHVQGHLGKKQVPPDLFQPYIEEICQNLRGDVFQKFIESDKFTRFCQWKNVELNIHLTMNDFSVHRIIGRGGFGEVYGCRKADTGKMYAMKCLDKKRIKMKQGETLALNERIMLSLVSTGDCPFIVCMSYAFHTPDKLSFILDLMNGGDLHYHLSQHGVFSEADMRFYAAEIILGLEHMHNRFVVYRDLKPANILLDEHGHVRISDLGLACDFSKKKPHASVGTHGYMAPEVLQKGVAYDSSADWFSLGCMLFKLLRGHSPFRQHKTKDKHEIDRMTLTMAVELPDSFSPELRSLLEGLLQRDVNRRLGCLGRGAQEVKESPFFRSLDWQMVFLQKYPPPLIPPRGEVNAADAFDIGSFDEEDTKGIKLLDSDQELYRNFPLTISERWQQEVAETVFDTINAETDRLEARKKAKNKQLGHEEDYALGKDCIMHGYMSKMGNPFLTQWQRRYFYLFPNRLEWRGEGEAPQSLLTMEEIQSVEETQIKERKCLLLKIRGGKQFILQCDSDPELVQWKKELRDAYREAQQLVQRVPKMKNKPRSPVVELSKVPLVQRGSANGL
# [11] = target: T3, Small ubiquitin-related modifier 1; assay: inhibitors of SUMO1 peptide binding, dose response, biochemical, fluorescence polarization, uHTS hits (AID 624382); assay type: functional; conditions: read-out: IC50_Mean
# [12] = target: Photoreceptor-specific nuclear receptor (Homo sapiens, UniProt Q9Y5X4); assay: NR2E3 inverse agonists, dose response, biochemical, TR-FRET (AID 463256); assay type: functional
# Chain of Photoreceptor-specific nuclear receptor (Q9Y5X4 whole entry): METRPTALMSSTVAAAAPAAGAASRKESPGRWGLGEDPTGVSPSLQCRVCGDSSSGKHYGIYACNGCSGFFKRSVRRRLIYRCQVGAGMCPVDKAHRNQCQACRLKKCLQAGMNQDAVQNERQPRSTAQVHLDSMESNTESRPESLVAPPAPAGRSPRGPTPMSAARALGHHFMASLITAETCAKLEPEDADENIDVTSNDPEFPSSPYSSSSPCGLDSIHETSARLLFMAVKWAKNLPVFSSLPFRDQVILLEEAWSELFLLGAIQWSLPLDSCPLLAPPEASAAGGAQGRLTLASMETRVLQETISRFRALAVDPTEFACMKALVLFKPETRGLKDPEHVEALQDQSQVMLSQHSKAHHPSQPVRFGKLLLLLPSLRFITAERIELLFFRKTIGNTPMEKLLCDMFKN
# Hexokinase HKDC1 = target: T4, Hexokinase HKDC1 (Homo sapiens, UniProt Q2TB90); assay: HKDC1 hexokinase inhibitors, SAR follow-up, biochemical, set 2 (AID 588355); assay type: functional
# T4 sequence (Q2TB90 whole entry): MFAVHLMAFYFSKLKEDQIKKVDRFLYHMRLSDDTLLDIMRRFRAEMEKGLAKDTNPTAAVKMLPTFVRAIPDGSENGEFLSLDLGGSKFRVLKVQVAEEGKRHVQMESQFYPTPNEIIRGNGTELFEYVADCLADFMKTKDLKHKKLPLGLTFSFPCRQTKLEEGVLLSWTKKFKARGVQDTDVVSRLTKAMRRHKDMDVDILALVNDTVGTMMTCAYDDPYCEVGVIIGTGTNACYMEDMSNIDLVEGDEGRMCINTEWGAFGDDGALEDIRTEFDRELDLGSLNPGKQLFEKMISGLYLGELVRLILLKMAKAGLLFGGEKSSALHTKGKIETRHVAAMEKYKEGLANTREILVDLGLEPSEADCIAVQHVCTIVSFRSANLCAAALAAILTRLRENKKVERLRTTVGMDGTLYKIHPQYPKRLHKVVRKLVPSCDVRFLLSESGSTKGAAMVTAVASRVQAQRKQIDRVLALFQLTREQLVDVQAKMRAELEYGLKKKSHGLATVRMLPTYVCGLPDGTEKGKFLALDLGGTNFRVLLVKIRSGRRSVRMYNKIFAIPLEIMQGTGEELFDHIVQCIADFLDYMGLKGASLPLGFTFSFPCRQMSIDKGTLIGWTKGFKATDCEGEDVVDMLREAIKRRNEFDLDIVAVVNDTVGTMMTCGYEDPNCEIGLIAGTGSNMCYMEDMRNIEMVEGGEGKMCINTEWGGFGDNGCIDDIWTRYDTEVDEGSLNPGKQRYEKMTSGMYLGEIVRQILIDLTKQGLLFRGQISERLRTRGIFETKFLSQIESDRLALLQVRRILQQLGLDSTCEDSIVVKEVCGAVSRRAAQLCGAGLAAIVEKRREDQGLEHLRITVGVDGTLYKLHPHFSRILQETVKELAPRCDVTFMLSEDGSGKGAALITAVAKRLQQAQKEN
# Hexokinase-1 = target: T5, Hexokinase-1 (Homo sapiens, UniProt P19367); assay: HK1 enzyme inhibition by HKDC1 hits, SAR follow-up, selectivity assay for HKDC1 inhibitor project, biochemical, set 2, resazurin fluorescence coupled readout (AID 588356); assay type: functional
# T5 sequence (P19367 whole entry): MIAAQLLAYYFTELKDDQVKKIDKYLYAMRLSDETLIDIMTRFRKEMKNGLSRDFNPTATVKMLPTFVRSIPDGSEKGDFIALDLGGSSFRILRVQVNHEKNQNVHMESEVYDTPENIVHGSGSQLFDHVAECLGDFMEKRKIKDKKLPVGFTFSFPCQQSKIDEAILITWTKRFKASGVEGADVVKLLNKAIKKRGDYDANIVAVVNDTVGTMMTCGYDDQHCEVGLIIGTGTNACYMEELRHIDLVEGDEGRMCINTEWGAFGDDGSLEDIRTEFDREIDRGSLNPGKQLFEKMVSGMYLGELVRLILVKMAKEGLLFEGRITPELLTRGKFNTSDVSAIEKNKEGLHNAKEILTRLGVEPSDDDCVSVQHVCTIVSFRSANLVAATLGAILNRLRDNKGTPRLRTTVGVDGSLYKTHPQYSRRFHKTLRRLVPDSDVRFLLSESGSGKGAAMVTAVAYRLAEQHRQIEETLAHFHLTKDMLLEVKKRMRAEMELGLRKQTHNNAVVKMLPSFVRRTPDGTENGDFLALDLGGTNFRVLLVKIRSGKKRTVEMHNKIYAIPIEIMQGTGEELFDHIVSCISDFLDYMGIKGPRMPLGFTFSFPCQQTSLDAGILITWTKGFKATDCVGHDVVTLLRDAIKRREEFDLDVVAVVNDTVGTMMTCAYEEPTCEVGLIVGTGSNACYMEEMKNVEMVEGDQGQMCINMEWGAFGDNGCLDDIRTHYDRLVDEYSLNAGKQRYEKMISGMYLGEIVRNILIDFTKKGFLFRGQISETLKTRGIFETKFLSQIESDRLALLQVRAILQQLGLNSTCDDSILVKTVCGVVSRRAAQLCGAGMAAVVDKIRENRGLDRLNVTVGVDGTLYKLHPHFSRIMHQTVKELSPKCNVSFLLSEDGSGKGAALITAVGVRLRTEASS
compound,measurement,setting,value
O=C(Nc1cccc(Cl)c1)Nc1cc(S(=O)(=O)N2CCCCC2)ccc1Cl,EC50,[1],1.91 µM (active)
same,AC50,[2],2.59 µM (active)
same,EC50,Streptococcus,26.6 µM (active)
same,AC50,A-375 [3],> 11 µM (active)
same,EC50,[4],11.8 µM (active)
same,AC50,[5],12 µM (active)
same,AC50,A-375 [6],> 11 µM (active)
same,EC50,Streptokinase A,4.59 µM (active)
same,EC50,[7],> 60 µM (not active)
CCOc1ccc(NC(=O)CCS(=O)(=O)c2ccc(Br)cc2)cc1,IC50,[8],12.8 µM (active)
same,IC50,[9],13.6 µM (not active)
same,EC50,[10],0.277 µM (inactive)
same,IC50,[11],> 66.6 µM (inactive)
same,IC50,[12],8.87 µM (active)
O=c1c2cc(Cl)ccc2nc(/C=C/c2cccnc2)n1Cc1ccccc1,IC50,Hexokinase HKDC1,> 80 µM (inactive)
same,IC50,Hexokinase-1,> 80 µM (inactive)
